Results from US20100311827A1, “Chlorogenic acid derivatives and their use as anti-fungal agents” (priority 2006, published 2010).
Values after ≈ are worked out from the molar mass of the structure shown. Like-named read-outs stand apart in the source and are kept apart here.

Key:
[1] = system: Aspergillus fumigatus (ATCC13073); assay: Broth dilution anti-fungal susceptibility of filamentous fungi (NCCLS M38-A), MIC; format: cell-based; conditions: Table 1, MICs read at 80% inhibition, 35° C., 48 hours, tested 0.12 to 64 μg/ml
Method: (§1) The anti-fungal activity of the compounds according to the invention were evaluated against Candida albicans (ATCC90028), Cryptococcus neoformans (ATCC32045), and Aspergillus fumigatus (ATCC13073) according to NCCLS guidelines (NCCLS reference method for broth dilution anti-fungal susceptibility testing of yeasts; approved standard-second edition, M27-A2, National Committee for Clinical Laboratory Standards, Villanova, Pa. 2003; and NCCLS reference method for broth dilution anti-fungal susceptibility testing of filamentous fungi; approved standard, M38-A, National Committee for Clinical Laboratory Standards, Villanova, Pa. 2002).
(§2) The medium required for the evaluation of anti-fungal activity was prepared as follows. RPMI 1640 broth+MOPS, pH adjusted and filter sterilized. Sabouraud Dextrose Agar (SDA) plates were used for growing fungi.
(§3) All test or candidate compounds were prepared as 5 mg/ml stock solutions in DMSO and further diluted according to the NCCLS guidelines with sterile water or appropriate diluent. A working stock of 256 μg/ml was used to prepare 1:2 serial dilutions in 96-well plates.
(§4) The inoculums of fungi were prepared by making a direct sterile water suspension of colonies/spores from SDA plates. 0.1% Tween 20 was used for A. fumigatus for better dispersal of spores in suspension. For C. albicans and C. neoformans overnight cultures were used. A. fumigatus required longer incubation. Each fungal suspension was adjusted to read between 70 and 75% transmittance at 530 nm (0.5 McFarland Standard). These suspensions were further diluted 1/1000 in appropriate broth for inoculating the 96-well plates.
(§5) All plates were incubated at 35° C. for the following times: 18 hours to 24 hours for C. albicans, 48 hours for A. fumigatus, and 48 to 72 hours for C. neoformans.

[2] = system: Candida albicans (ATCC90028); assay: Broth dilution anti-fungal susceptibility (NCCLS M27-A2), MIC; format: cell-based; conditions: for MIC: Candida albicans, MICs read at 80% inhibition
Method: as §1, §2, §3, §4, §5

[3] = system: Cryptococcus neoformans (ATCC32045); assay: as above; format: cell-based; conditions: Table 1, MICs read at 80% inhibition, 35° C., 48 to 72 hours, tested 0.12 to 64 μg/ml
Method: as §1, §2, §3, §4, §5

brine shrimp = format: in vivo
Method: The general in vitro toxicity of these compounds can be tested using the Brine Shrimp Lethality assay, as described in Mclaughlin, J. L. in Methods in Plant Biochemistry. Ed. K. Hostettmann, Academic Press, London, 1991; Vol. 6, pp. 1-32. Typically, candidate compounds are diluted in seawater to a suitable concentration and added to second instar larvae of Artemia salina. After a suitable period of time, for example 24 hours, the survivors are counted. In vitro acute toxicity testing of a compound of Formula I can also be performed using mammalian cell lines (see, for example, Ekwall, B., Ann. N.Y. Acad. Sci., (1983) 407:64-77). Selection of an appropriate cell line is dependent on the potential application of the candidate compound and can be readily determined by one skilled in the art.
To test the general toxicity of these compounds, Brine Shrimp Lethality assay was carried out according to Mclaughlin, J. L. in Methods in Plant Biochemistry. Ed. K. Hostettmann, Academic Press, London, 1991; Vol. 6, pp. 1-32. The compounds were tested at 100 μg/ml.

Candida krusei ATCC6258 = assay: Broth dilution anti-fungal susceptibility, MIC (as in Example 24); format: cell-based
[4] = comparison in words, from Table 3

MIC [1]: > 64 µg/mL
MIC ([2]; ATCC90028, Table 1, 35° C., 18 to 24 hours, tested 0.12 to 64 μg/ml): 2 µg/mL (≈ 2.8 µM)
MIC ([2]; ATCC90028, Table 3 (Example 26, additional testing), 0.12 to 64 μg/ml, read-out: MIC C. albicans): 4 µg/mL (≈ 5.6 µM)
MIC [3]: 1 µg/mL (≈ 1.4 µM)
MIC (Candida krusei ATCC6258; Pichia kudriavzevii, ATCC6258, Table 3 (Example 26), MICs read at 80% inhibition, 0.12 to 64 μg/ml, read-out: MIC C. krusei): 2 µg/mL (≈ 2.8 µM)
Structure (SMILES): CCCCCCCCOc1ccc(NC(=O)C(NC(=O)C2(O)CC(O)C(O)C(OC(=O)/C=C/c3ccc(O)c(O)c3)C2)C(C)OC(C)(C)C)cc1 (stereo not drawn) [Compound 8]
inhibitory activity against C. albicans compared to chlorogenic acid [2, 4]: more potent inhibitory activity
% BL (brine shrimp lethality) (brine shrimp; at 100 μg/ml): 50.0%
toxicity on brine shrimp compared to chlorogenic acid (brine shrimp; comparison in words, from Table 2): less toxicity
inhibitory activity against C. krusei compared to chlorogenic acid (Candida krusei ATCC6258; [4]): more potent inhibitory activity
